Experimental data as given in the supplement of paper PMC10307832.

Legend:
Assay in all cases: relative viability (nuclei count vs DMSO), 5 days (fraction); higher = more cells survive
COR-L23 = system: COR-L23
Method in brief: (§1)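 The day after seeding in 1536-well plates, lung cancer cell lines were treated by pin tool with a single drug, or with a fixed anchor-drug dose together with five library-drug doses (not always all listed) in √10 steps. After 5 days, a combined fix-and-stain solution (final 0.05% Triton X-100, 1% formaldehyde, 1 ug/ml Hoechst) was added. Nuclei counted on 4× images gave relative viability as treated counts over vehicle counts, reported as the median of duplicate plates.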

ChaGo-K-1 = system: ChaGo-K-1
Method in brief: as §1

EMC-BAC-2 = system: EMC-BAC-2
Method in brief: as §1

EPLC-272H = system: EPLC-272H
Method in brief: as §1

H3255 = system: H3255
Method in brief: as §1

HCC-44 = system: HCC-44
Method in brief: as §1

HCC-827 = system: HCC-827
Method in brief: as §1

LCLC-103H = system: LCLC-103H
Method in brief: as §1

LU99A = system: LU99A
Method in brief: as §1

NCI-H1395 = system: NCI-H1395
Method in brief: as §1

NCI-H1651 = system: NCI-H1651
Method in brief: as §1

NCI-H1793 = system: NCI-H1793
Method in brief: as §1

NCI-H1944 = system: NCI-H1944
Method in brief: as §1

NCI-H2023 = system: NCI-H2023
Method in brief: as §1

NCI-H2085 = system: NCI-H2085
Method in brief: as §1

NCI-H2087 = system: NCI-H2087
Method in brief: as §1

NCI-H2405 = system: NCI-H2405
Method in brief: as §1

NCI-H520 = system: NCI-H520
Method in brief: as §1

NCI-H650 = system: NCI-H650
Method in brief: as §1

NCI-H838 = system: NCI-H838
Method in brief: as §1

SK-MES-1 = system: SK-MES-1
Method in brief: as §1

Compound: Cc1sc2c(c1C)C(c1ccc(Cl)cc1)=N[C@@H](CC(=O)OC(C)(C)C)c1nnc(C)n1-2 [JQ1] + CC(=O)Nc1cccc(-n2c(=O)n(C3CC3)c(=O)c3c(Nc4ccc(I)cc4F)n(C)c(=O)c(C)c32)c1 [Trametinib] (partner 0.02 µM)
- relative viability (COR-L23; first compound 0.04 µM): 0.562
- relative viability (COR-L23; first compound 0.1265 µM): 0.497
- relative viability (COR-L23; first compound 0.4 µM): 0.55
- relative viability (COR-L23; first compound 1.265 µM): 0.342
- relative viability (COR-L23; first compound 4 µM): 0.29
- relative viability (ChaGo-K-1; first compound 0.04 µM): 0.943
- relative viability (ChaGo-K-1; first compound 0.1265 µM): 0.928
- relative viability (ChaGo-K-1; first compound 0.4 µM): 0.797
- relative viability (ChaGo-K-1; first compound 1.265 µM): 0.641
- relative viability (ChaGo-K-1; first compound 4 µM): 0.483
- relative viability (EMC-BAC-2; first compound 0.04 µM): 0.935
- relative viability (EMC-BAC-2; first compound 0.4 µM): 0.881
- relative viability (EMC-BAC-2; first compound 1.265 µM): 0.586
- relative viability (EMC-BAC-2; first compound 4 µM): 0.366
- relative viability (EPLC-272H; first compound 0.04 µM): 0.278
- relative viability (EPLC-272H; first compound 0.1265 µM): 0.252
- relative viability (EPLC-272H; first compound 0.4 µM): 0.273
- relative viability (EPLC-272H; first compound 1.265 µM): 0.254
- relative viability (EPLC-272H; first compound 4 µM): 0.215
- relative viability (H3255; first compound 0.04 µM): 0.58
- relative viability (H3255; first compound 0.4 µM): 0.452
- relative viability (H3255; first compound 1.265 µM): 0.345
- relative viability (H3255; first compound 4 µM): 0.322
- relative viability (HCC-44; first compound 0.04 µM): 1.02
- relative viability (HCC-44; first compound 0.1265 µM): 1.09
- relative viability (HCC-44; first compound 0.4 µM): 0.766
- relative viability (HCC-44; first compound 1.265 µM): 0.649
- relative viability (HCC-44; first compound 4 µM): 0.493
- relative viability (HCC-827; first compound 0.04 µM): 0.562
- relative viability (HCC-827; first compound 0.1265 µM): 0.519
- relative viability (HCC-827; first compound 1.265 µM): 0.543
- relative viability (HCC-827; first compound 4 µM): 0.474
- relative viability (LCLC-103H; first compound 0.04 µM): 0.642
- relative viability (LCLC-103H; first compound 0.1265 µM): 0.613
- relative viability (LCLC-103H; first compound 0.4 µM): 0.534
- relative viability (LCLC-103H; first compound 1.265 µM): 0.477
- relative viability (LCLC-103H; first compound 4 µM): 0.426
- relative viability (LU99A; first compound 0.04 µM): 0.544
- relative viability (LU99A; first compound 0.4 µM): 0.335
- relative viability (LU99A; first compound 1.265 µM): 0.209
- relative viability (LU99A; first compound 4 µM): 0.194
- relative viability (NCI-H1395; first compound 0.04 µM): 1.03
- relative viability (NCI-H1395; first compound 0.1265 µM): 0.991
- relative viability (NCI-H1395; first compound 0.4 µM): 0.912
- relative viability (NCI-H1395; first compound 1.265 µM): 0.628
- relative viability (NCI-H1395; first compound 4 µM): 0.578
- relative viability (NCI-H1651; first compound 0.04 µM): 0.782
- relative viability (NCI-H1651; first compound 0.1265 µM): 0.742
- relative viability (NCI-H1651; first compound 0.4 µM): 0.603
- relative viability (NCI-H1651; first compound 1.265 µM): 0.496
- relative viability (NCI-H1651; first compound 4 µM): 0.437
- relative viability (NCI-H1793; first compound 0.04 µM): 0.483
- relative viability (NCI-H1793; first compound 0.1265 µM): 0.429
- relative viability (NCI-H1793; first compound 0.4 µM): 0.595
- relative viability (NCI-H1793; first compound 1.265 µM): 0.481
- relative viability (NCI-H1793; first compound 4 µM): 0.5
- relative viability (NCI-H1944; first compound 0.04 µM): 0.409
- relative viability (NCI-H1944; first compound 0.1265 µM): 0.394
- relative viability (NCI-H1944; first compound 0.4 µM): 0.305
- relative viability (NCI-H1944; first compound 1.265 µM): 0.288
- relative viability (NCI-H1944; first compound 4 µM): 0.278
- relative viability (NCI-H2023; first compound 0.04 µM): 0.472
- relative viability (NCI-H2023; first compound 0.1265 µM): 0.394
- relative viability (NCI-H2023; first compound 0.4 µM): 0.248
- relative viability (NCI-H2023; first compound 1.265 µM): 0.162
- relative viability (NCI-H2023; first compound 4 µM): 0.137
- relative viability (NCI-H2085; first compound 0.04 µM): 0.376
- relative viability (NCI-H2085; first compound 0.1265 µM): 0.551
- relative viability (NCI-H2085; first compound 0.4 µM): 0.407
- relative viability (NCI-H2085; first compound 1.265 µM): 0.248
- relative viability (NCI-H2085; first compound 4 µM): 0.239
- relative viability (NCI-H2087; first compound 0.04 µM): 0.192
- relative viability (NCI-H2087; first compound 0.1265 µM): 0.179
- relative viability (NCI-H2087; first compound 0.4 µM): 0.18
- relative viability (NCI-H2087; first compound 1.265 µM): 0.142
- relative viability (NCI-H2087; first compound 4 µM): 0.167
- relative viability (NCI-H2405; first compound 0.04 µM): 0.627
- relative viability (NCI-H2405; first compound 0.4 µM): 0.601
- relative viability (NCI-H2405; first compound 1.265 µM): 0.422
- relative viability (NCI-H2405; first compound 4 µM): 0.332
- relative viability (NCI-H520; first compound 0.04 µM): 0.565
- relative viability (NCI-H520; first compound 0.1265 µM): 0.66
- relative viability (NCI-H520; first compound 0.4 µM): 0.386
- relative viability (NCI-H520; first compound 1.265 µM): 0.391
- relative viability (NCI-H520; first compound 4 µM): 0.239
- relative viability (NCI-H650; first compound 0.04 µM): 0.852
- relative viability (NCI-H650; first compound 0.1265 µM): 0.812
- relative viability (NCI-H650; first compound 0.4 µM): 0.779
- relative viability (NCI-H650; first compound 1.265 µM): 0.371
- relative viability (NCI-H650; first compound 4 µM): 0.275
- relative viability (NCI-H838; first compound 0.04 µM): 0.521
- relative viability (NCI-H838; first compound 0.1265 µM): 0.267
- relative viability (NCI-H838; first compound 0.4 µM): 0.375
- relative viability (NCI-H838; first compound 1.265 µM): 0.293
- relative viability (NCI-H838; first compound 4 µM): 0.202
- relative viability (SK-MES-1; first compound 0.04 µM): 0.446
- relative viability (SK-MES-1; first compound 0.1265 µM): 0.309
- relative viability (SK-MES-1; first compound 0.4 µM): 0.32
- relative viability (SK-MES-1; first compound 1.265 µM): 0.24
- relative viability (SK-MES-1; first compound 4 µM): 0.259
